Each block holds one molecule with its values, some of them ahead of it. Primed or numbered codes have the meaning given here. The star is where a group is joined. aldehyde′ = C-terminal aldehyde (aspartyl aldehyde); Cbz = O=C(OCc1ccccc1)*; CH2F = FC*
Legend:
[1] = molecular target: T1, Csp-1 (Homo sapiens, UniProt P29466); assay: Fluorescence enzyme assay, IC50 determination; format: biochemical; conditions: recombinant enzyme, 30 minutes preincubation at room temperature, AMC substrate
T1 sequence (P29466 120-297 limits assumed): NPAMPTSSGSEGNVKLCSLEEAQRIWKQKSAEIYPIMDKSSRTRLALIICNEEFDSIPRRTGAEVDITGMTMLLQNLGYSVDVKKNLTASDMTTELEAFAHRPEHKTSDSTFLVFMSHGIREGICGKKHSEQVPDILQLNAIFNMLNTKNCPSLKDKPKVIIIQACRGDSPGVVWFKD
Method: (§1) Fluorescence enzyme assays detecting the activity of the compounds of Formula I utilizing the recombinant ICE and CPP32 enzymes are performed essentially according to Thornberry et al. (Nature 356:768:774 (1992)) and Nicholson et al. (Nature 376:37-43 (1995)) respectively, (herein incorporated by reference) in 96 well microtiter plates. The substrate is Acetyl-Tyr-Val-Ala-Asp-amino-4-methylcoumarin (AMC) (SEQ ID NO: 1) for the ICE assay and Acetyl-Asp-Glu-Val-Asp-amino-4-methylcoumarin (SEQ ID NO: 2) for the CPP32, Mch2, Mch3 and Mch5 assays. Enzyme reactions are run in ICE buffer (25 mM HEPES, 1 mM EDTA, 0.1% CHAPS, 10% sucrose, pH 7.5) containing 2 mM DTT at room temperature in duplicate. The assays are performed by mixing the following components: • 50 μL ICE, Mch2, Mch5, CPP32 (18.8, 38, 8.1 and 0.153 nM concentrations, respectively) or Mch3 (1 unit) enzyme in ICE buffer containing either 8.0 (ICE, Mch2, Mch3, CPP32) or 20 (Mch5) mM DTT; • 50 μL compound of Formula I or ICE buffer (control); and • 100 μL of 20 μM substrate.
(§2) The enzyme and the compound of Formula I to be assayed are allowed to preincubate in the microtitre plate wells for 30 minutes at room temperature prior to the addition of substrate to initiate the reaction. Fluorescent AMC product formation is monitored for one hour at room temperature by measuring the fluorescence emission at 460 nm using an excitation wavelength of 360 nm. The fluorescence change in duplicate (control) wells are averaged and the mean values are plotted as a function of inhibitor concentration to determine the inhibitor concentration producing 50% inhibition (IC50).
(§3) The activity of a representative compound of this invention (i.e., Compound No. 1) was evaluated according to the procedures disclosed in Example 1. More specifically, the IC50 and Ki for Compound No. 1 were determined as set forth above. The IC50 results are provided in Table 2, as run against Cbz-ValAlaAsp-H as a reference control.

[2] = molecular target: T2, Csp-3 (Homo sapiens, UniProt P42574); assay: Fluorescence enzyme assay, IC50 determination; format: biochemical; conditions: recombinant enzyme, 30 minutes preincubation at room temperature, AMC substrate
T2 sequence (P42574 29-175 limits assumed): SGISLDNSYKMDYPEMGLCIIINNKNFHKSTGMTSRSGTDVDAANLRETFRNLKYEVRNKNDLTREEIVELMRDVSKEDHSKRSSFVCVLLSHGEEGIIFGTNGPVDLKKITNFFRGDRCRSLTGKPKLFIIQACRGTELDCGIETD
Method: as §1, §2, §3

[3] = molecular target: T3, Csp-6 (Homo sapiens, UniProt P55212); assay: Fluorescence enzyme assay, IC50 determination; format: biochemical; conditions: 30 minutes preincubation at room temperature, AMC substrate
T3 sequence (P55212 24-179 limits assumed): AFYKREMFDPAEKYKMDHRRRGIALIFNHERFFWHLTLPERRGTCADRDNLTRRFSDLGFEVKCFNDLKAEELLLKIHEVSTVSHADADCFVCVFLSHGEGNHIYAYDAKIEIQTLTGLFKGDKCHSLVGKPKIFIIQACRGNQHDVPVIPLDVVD
Method: as §1, §2, §3

[4] = molecular target: T4, Csp-7 (Homo sapiens, UniProt P55210); assay: Fluorescence enzyme assay, IC50 determination; format: biochemical; conditions: 30 minutes preincubation at room temperature, AMC substrate
T4 sequence (P55210 24-198 limits assumed): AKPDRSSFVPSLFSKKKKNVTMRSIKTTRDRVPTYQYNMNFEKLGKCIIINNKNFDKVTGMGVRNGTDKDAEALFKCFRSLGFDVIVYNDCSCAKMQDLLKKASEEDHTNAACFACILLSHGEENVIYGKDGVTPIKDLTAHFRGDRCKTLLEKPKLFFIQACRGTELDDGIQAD
Method: as §1, §2, §3

[5] = molecular target: T5, Csp-8 (Homo sapiens, UniProt Q14790); assay: Fluorescence enzyme assay, IC50 determination; format: biochemical; conditions: 30 minutes preincubation at room temperature, AMC substrate
T5 sequence (Q14790 217-374 limits assumed): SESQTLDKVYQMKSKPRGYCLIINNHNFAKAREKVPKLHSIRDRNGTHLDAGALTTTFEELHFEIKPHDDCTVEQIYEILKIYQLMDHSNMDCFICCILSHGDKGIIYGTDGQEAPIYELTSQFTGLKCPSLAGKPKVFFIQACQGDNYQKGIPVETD
Method: as §1, §2, §3

[6] = molecular target: T6, Csp-9 (Homo sapiens, UniProt P55211); assay: Fluorescence enzyme assay, IC50 determination; format: biochemical; conditions: 30 minutes preincubation at room temperature, AMC substrate
T6 sequence (P55211 1-315 limits assumed): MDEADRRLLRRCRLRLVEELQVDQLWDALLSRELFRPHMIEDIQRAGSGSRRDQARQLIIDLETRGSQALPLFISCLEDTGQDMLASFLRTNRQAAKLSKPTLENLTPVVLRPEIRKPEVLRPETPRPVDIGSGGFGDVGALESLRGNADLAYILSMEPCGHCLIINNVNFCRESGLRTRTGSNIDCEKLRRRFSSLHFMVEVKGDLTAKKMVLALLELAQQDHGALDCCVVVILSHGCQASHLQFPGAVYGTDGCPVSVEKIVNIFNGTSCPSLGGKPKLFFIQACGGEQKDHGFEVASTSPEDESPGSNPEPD

[7] = molecular target: T1, Csp-1; assay: Continuous assay for dissociation constant Ki of irreversible inhibitors; format: biochemical; conditions: continuous assay for sixty minutes, reaction initiated by adding enzyme to substrate-inhibitor mixture
Description: (§4) For the irreversible inhibition of a ICE/ced-3 Family Protease enzyme with a competitive irreversible inhibitor; using the model represented by the following formulas: [drawing 16] The product formation at time t may be expressed as: [formula] where E, I, EI and E-I denote the active enzyme, inhibitor, non-covalent enzyme-inhibitor complex and covalent enzyme-inhibitor adduct, respectively. The Ki value is the overall dissociation constant of the reversible binding steps, and k3 is the irreversible rate constant. The [S] and Ks values are the substrate concentration and dissociation constant of the substrate bound to the enzyme, respectively. [E]^T is the total enzyme concentration.
(§5) The equations set forth in Example I were also used determine the Ki values of inhibitor (i.e., Compound No. 1) bound to a ICE/ced-3 family protease. Thus, a continuous assay was run for sixty minutes at various concentrations of the inhibitor and the substrate. The assay was formulated essentially the same as described above for generating the data in Table 2, except that the reaction was initiated by adding the enzyme to the substrate-inhibitor mixture. The Ki values were obtained by simulating the product AMC formation as a function of time according to Equation I. The results of this second assay are set forth below in Table 3, wherein the reference compound was Cbz-ValAlaAsp-CH2F.

[8] = molecular target: T2, Csp-3; assay: as above; format: biochemical; conditions: continuous assay for sixty minutes, reaction initiated by adding enzyme to substrate-inhibitor mixture
Description: as §4, §5

[9] = molecular target: T3, Csp-6; assay: as above; format: biochemical; conditions: continuous assay for sixty minutes, reaction initiated by adding enzyme to substrate-inhibitor mixture
Description: as §4, §5

[10] = molecular target: T5, Csp-8; assay: as above; format: biochemical; conditions: continuous assay for sixty minutes, reaction initiated by adding enzyme to substrate-inhibitor mixture
Description: as §4, §5

[11] = molecular target: T7, Csp-1 (UniProt P29466 120-297; P29466 317-404, limits assumed); assay: continuous fluorogenic enzyme assay, 60 min, fit of AMC product formation to irreversible competitive inhibition model
T7 sequence (looked up) 1: T1 sequence (P29466 120-297 limits assumed)
T7 sequence (looked up) 2: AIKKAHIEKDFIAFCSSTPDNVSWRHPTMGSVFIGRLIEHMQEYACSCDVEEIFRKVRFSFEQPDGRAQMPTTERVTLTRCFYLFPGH

[12] = molecular target: T8, Csp-3 (UniProt P42574 29-277, limits assumed); assay: as above
T8 sequence (looked up): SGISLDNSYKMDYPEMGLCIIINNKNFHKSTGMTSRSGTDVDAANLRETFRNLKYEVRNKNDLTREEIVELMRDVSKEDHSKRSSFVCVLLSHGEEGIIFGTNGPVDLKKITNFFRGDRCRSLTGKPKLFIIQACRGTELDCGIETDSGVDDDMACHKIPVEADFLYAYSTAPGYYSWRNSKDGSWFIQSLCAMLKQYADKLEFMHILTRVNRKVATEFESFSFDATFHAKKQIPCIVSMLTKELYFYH

[13] = molecular target: T9, Csp-6 (UniProt P55212 24-179; P55212 194-293, limits assumed); assay: as above
T9 sequence (looked up) 1: T3 sequence (P55212 24-179 limits assumed)
T9 sequence (looked up) 2: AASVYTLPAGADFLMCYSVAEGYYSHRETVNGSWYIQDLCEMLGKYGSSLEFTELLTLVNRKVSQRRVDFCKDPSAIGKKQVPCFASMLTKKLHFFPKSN

[14] = molecular target: T10, Csp-8 (UniProt Q14790 217-374; Q14790 385-479, limits assumed); assay: as above
T10 sequence (Q14790 217-374 limits assumed, form in doubt, chain 1 of 2): as the sequence (Q14790 217-374 limits assumed) above
T10 sequence (Q14790 385-479 limits assumed, form in doubt, chain 2 of 2): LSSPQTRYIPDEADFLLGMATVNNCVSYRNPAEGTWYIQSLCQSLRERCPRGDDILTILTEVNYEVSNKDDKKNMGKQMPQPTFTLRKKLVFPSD

[15] = molecular target: T7, Csp-1; assay: cell-based or functional assay
[16] = molecular target: T8, Csp-3; assay: cell-based or functional assay
[17] = molecular target: T9, Csp-6; assay: cell-based or functional assay
[18] = molecular target: T11, Csp-7 (UniProt P55210 24-303, limits assumed); assay: cell-based or functional assay
T11 sequence (looked up): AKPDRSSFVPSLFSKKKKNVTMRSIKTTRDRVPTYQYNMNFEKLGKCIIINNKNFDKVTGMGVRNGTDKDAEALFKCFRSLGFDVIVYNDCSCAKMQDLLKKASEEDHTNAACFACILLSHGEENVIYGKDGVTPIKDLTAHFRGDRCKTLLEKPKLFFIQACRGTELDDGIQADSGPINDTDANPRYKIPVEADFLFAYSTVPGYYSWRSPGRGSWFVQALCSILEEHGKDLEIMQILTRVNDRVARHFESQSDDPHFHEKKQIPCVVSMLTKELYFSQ

[19] = molecular target: T10, Csp-8; assay: cell-based or functional assay
[20] = molecular target: T12, Csp-9 (UniProt P55211 1-416, limits assumed); assay: cell-based or functional assay
T12 sequence (looked up): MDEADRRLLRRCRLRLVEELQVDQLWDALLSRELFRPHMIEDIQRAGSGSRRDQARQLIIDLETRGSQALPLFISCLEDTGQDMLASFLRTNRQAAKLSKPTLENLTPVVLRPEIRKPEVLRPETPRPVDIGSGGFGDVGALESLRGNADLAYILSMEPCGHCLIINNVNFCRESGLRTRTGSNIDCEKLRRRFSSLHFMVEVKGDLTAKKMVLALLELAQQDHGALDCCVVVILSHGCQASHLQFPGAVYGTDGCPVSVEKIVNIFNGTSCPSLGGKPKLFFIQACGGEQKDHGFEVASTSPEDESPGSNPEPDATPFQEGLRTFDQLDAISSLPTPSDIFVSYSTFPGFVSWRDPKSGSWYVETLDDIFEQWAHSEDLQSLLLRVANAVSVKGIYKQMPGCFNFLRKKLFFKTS

IC50 [1]: 4 nM | IC50 [2]: 2 nM | IC50 [3]: 2 nM | IC50 [4]: 4 nM | IC50 [5]: 6 nM | IC50 [6]: 5 nM | Ki [7]: 200 nM | Ki [8]: 80 nM | Ki [9]: 400 nM | Ki [10]: 600 nM
Molecule: CC(C)C(NC(=O)COc1cccc2ccccc12)C(=O)NC(CC(=O)NS(C)(=O)=O)C(=O)COc1c(F)c(F)cc(F)c1F (centres unmarked) [Compound 1]

Ki [11]: 15 nM | Ki [12]: 820 nM | Ki [13]: 594 nM | Ki [14]: 18 nM
Molecule: Cbz-Val-Ala-Asp-CH2F

IC50 (µM), inhibition of enzyme activity, fluorogenic substrate [15]: 0.064 µM | IC50 (µM), inhibition of enzyme activity, fluorogenic substrate [16]: 47 µM | IC50 (µM), inhibition of enzyme activity, fluorogenic substrate [17]: > 10 µM | IC50 (µM), inhibition of enzyme activity, fluorogenic substrate [18]: > 10 µM | IC50 (µM), inhibition of enzyme activity, fluorogenic substrate [19]: 2.96 µM | IC50 (µM), inhibition of enzyme activity, fluorogenic substrate [20]: 0.87 µM
Molecule: Cbz-Val-Ala-Asp-{aldehyde′} [Cbz-ValAlaAsp-H]

Reference: patent publication US6969703B2, “Inhibitors of the ICE/ced-3 family of cysteine proteases” (Idun Pharmaceuticals, Inc., priority 2000, dated 2005)
